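Step 1: Grow cells in 96-well plates. Step 2: Expose to compound for 48 hours at 5 concentrations. Step 3: Interpolate endpoints linearly; if unreached, use highest concentration. GI50 = concentration required for 50% inhibition of growth.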 The source made the active and inactive calls. Cut-off read from the data, not from the text of the source: active = GI50 up to about 1.1 µM and inactive = higher.
Experiments:
Assay in all cases: NCI anticancer screen, dose series, 48 h
[1] = tested on: 786-0
[2] = tested on: CAKI-1
[3] = tested on: COLO 205
[4] = tested on: HCT-116
[5] = tested on: Hs-578T
[6] = tested on: IGROV-1
[7] = tested on: MCF7
[8] = tested on: MDA-N
[9] = tested on: MOLT-4
[10] = tested on: Malme-3M
[11] = tested on: NCI-H23
[12] = tested on: NCI/ADR-RES
[13] = tested on: OVCAR-4
[14] = tested on: SF-295
[15] = tested on: SK-MEL-28
[16] = tested on: SNB-19
[17] = tested on: T47D
[18] = tested on: UO-31
[19] = tested on: A498
[20] = tested on: NCI-H226

Row | SMILES | GI50 [1] | GI50 [2] | GI50 [3] | GI50 [4] | GI50 [5] | GI50 [6] | GI50 [7] | GI50 [8] | GI50 [9] | GI50 [10] | GI50 [11] | GI50 [12] | GI50 [13] | GI50 [14] | GI50 [15] | GI50 [16] | GI50 [17] | GI50 [18] | GI50 [19] | GI50 [20]
1 | O=C(Nc1ccccc1F)c1cc2ccc(O)cc2o/c1=N\c1ccccc1F | 1.79 µM (inactive) | 1.98 µM (inactive) | 21.8 µM (inactive) | 2.06 µM (inactive) | 2.33 µM (inactive) | 2.23 µM (inactive) | 3.2 µM (inactive) | 2.29 µM (inactive) | 1.74 µM (inactive) | 1.73 µM (inactive) | 2.17 µM (inactive) | 2.42 µM (inactive) | 1.85 µM (inactive) | 2.84 µM (inactive) | 2.45 µM (inactive) | 4.25 µM (inactive) | 1.96 µM (inactive) | 1.93 µM (inactive) |  | 
2 | COc1c(-c2nc3ccc(N4CCN(C)CC4)nc3[nH]2)cc(OC)c2[nH]c(COC(C)=O)nc12 | 22.8 µM (inactive) | > 100 µM (inactive) | 28.7 µM (inactive) | 20 µM (inactive) | > 100 µM (inactive) | 65.9 µM (inactive) | 17.2 µM (inactive) | 24.7 µM (inactive) |  | 28.1 µM (inactive) | 32.2 µM (inactive) | > 100 µM (inactive) | 32.4 µM (inactive) | 34.4 µM (inactive) | 49.1 µM (inactive) | 28.1 µM (inactive) | 22.5 µM (inactive) | 30.7 µM (inactive) | 93.1 µM (inactive) | 
3 | COC(=O)C1=C(O)c2ccc(Cl)cc2S(=O)(=O)N1C | > 100 µM (inactive) | > 100 µM (inactive) | > 100 µM (inactive) | > 100 µM (inactive) | > 100 µM (inactive) | 78 µM (inactive) | > 100 µM (inactive) | > 100 µM (inactive) | > 100 µM (inactive) | 77.6 µM (inactive) | 58.9 µM (inactive) | 19.1 µM (inactive) | 45.1 µM (inactive) | 60.5 µM (inactive) | > 100 µM (inactive) | 60.4 µM (inactive) | > 100 µM (inactive) | > 10 µM (inactive) | > 100 µM (inactive) | 
4 | CC(C)(C)C1=C(Br)C(Br)(C(C)(C)C)OP1(=O)c1ccccc1 (stereo not given) | > 100 µM (inactive) | > 100 µM (inactive) | > 100 µM (inactive) | > 100 µM (inactive) | > 100 µM (inactive) | > 100 µM (inactive) | > 100 µM (inactive) | > 100 µM (inactive) |  | > 100 µM (inactive) | > 100 µM (inactive) | > 100 µM (inactive) | > 100 µM (inactive) | > 100 µM (inactive) | > 100 µM (inactive) | > 100 µM (inactive) | 31.5 µM (inactive) | > 100 µM (inactive) | > 100 µM (inactive) | 
5 | CCNc1nc(N)c(C(=O)c2ccc(Cl)cc2)s1 | 39.9 µM (inactive) |  | 18.9 µM (inactive) | 27.9 µM (inactive) | 4.86 µM (inactive) | 25.1 µM (inactive) | 28.6 µM (inactive) | 41.8 µM (inactive) | 27.4 µM (inactive) | > 100 µM (inactive) | 45.6 µM (inactive) | 42.1 µM (inactive) | 36.3 µM (inactive) |  | 76.6 µM (inactive) | 18.9 µM (inactive) | 33 µM (inactive) | 15 µM (inactive) | 20.8 µM (inactive) | 22.3 µM (inactive)
6 | CCC(=O)NC(NNS(=O)(=O)c1ccc(C)cc1)(C(F)(F)F)C(F)(F)F | > 100 µM (inactive) | > 100 µM (inactive) | > 100 µM (inactive) | 64.3 µM (inactive) | 34.2 µM (inactive) | 49.4 µM (inactive) | 76 µM (inactive) | 18.5 µM (inactive) | 80 µM (inactive) | 59.4 µM (inactive) | 48.9 µM (inactive) | 27.3 µM (inactive) |  | > 100 µM (inactive) | 20.3 µM (inactive) | > 100 µM (inactive) | 96.8 µM (inactive) | 34.2 µM (inactive) | > 100 µM (inactive) | > 100 µM (inactive)
7 | CC1=CC(=O)/C(=C/N2CCNC2=S)C(=O)O1 | > 100 µM (inactive) | > 100 µM (inactive) | > 100 µM (inactive) | > 100 µM (inactive) | > 100 µM (inactive) | > 100 µM (inactive) | > 100 µM (inactive) | > 100 µM (inactive) | > 100 µM (inactive) |  | > 100 µM (inactive) | > 100 µM (inactive) | > 100 µM (inactive) | > 100 µM (inactive) |  | > 100 µM (inactive) | > 100 µM (inactive) | > 100 µM (inactive) | > 100 µM (inactive) | > 100 µM (inactive)
8 | N#CCCC(CCC#N)(CCC#N)NO | > 100 µM (inactive) | > 100 µM (inactive) | > 100 µM (inactive) | > 100 µM (inactive) | > 100 µM (inactive) | > 100 µM (inactive) | > 100 µM (inactive) | > 100 µM (inactive) |  | > 100 µM (inactive) | > 100 µM (inactive) | > 100 µM (inactive) |  | > 100 µM (inactive) |  | > 100 µM (inactive) | > 100 µM (inactive) | > 100 µM (inactive) |  | > 100 µM (inactive)
9 | CC(C)(C)[Si](C)(C)OCC1OC(n2cc(F)c(=O)[nH]c2=O)CC1O[Si](C)(C)C(C)(C)C (stereo not given) | 8.63 µM (inactive) | 12.5 µM (inactive) | 4.25 µM (inactive) | 7.66 µM (inactive) | 11.1 µM (inactive) | 6.71 µM (inactive) | 5.01 µM (inactive) | 6.21 µM (inactive) | 3.98 µM (inactive) | 16.4 µM (inactive) | 6.53 µM (inactive) | 16 µM (inactive) | 6.46 µM (inactive) | 6.97 µM (inactive) |  | 12.4 µM (inactive) | 1.11 µM (active) | 10.8 µM (inactive) | 6.87 µM (inactive) | 19.4 µM (inactive)
10 | Oc1c(Cl)c(Cl)c(Cl)c(Cl)c1Cl [PENTACHLOROPHENOL] | 21 µM (inactive) | 18.3 µM (inactive) | 31 µM (inactive) | 17.4 µM (inactive) | 35.2 µM (inactive) | 18.8 µM (inactive) | 24.9 µM (inactive) | 23.2 µM (inactive) | 20.6 µM (inactive) |  | 21.8 µM (inactive) | 17.9 µM (inactive) | 21.8 µM (inactive) | 17.2 µM (inactive) | 24 µM (inactive) | 30.3 µM (inactive) | 20 µM (inactive) | 17 µM (inactive) | 19 µM (inactive) | 28.4 µM (inactive)
11 | Cn1c(COC(=O)NC2CCCCC2)c(COC(=O)NC2CCCCC2)c2ccc3ccccc3c21 | 13.3 µM (inactive) | 11 µM (inactive) | 33.2 µM (inactive) | 33 µM (inactive) | 33.2 µM (inactive) | 19.1 µM (inactive) | 20.5 µM (inactive) | > 100 µM (inactive) | 9.31 µM (inactive) | 36.4 µM (inactive) | 21.8 µM (inactive) | 23.1 µM (inactive) | 53.3 µM (inactive) | 41 µM (inactive) |  | 55.7 µM (inactive) | 50.4 µM (inactive) | 34 µM (inactive) | 17.5 µM (inactive) | 23.7 µM (inactive)
12 | CC(=O)OC1C(COC(=O)c2ccccc2)OC(Nc2ncc(-c3ccc(Br)cc3)s2)C(OC(=O)c2ccccc2)C1OC(=O)c1ccccc1 (stereo not given) | 84.1 µM (inactive) |  | > 100 µM (inactive) | > 100 µM (inactive) | > 100 µM (inactive) | > 100 µM (inactive) | > 100 µM (inactive) | > 100 µM (inactive) | > 100 µM (inactive) | > 100 µM (inactive) | > 100 µM (inactive) | > 10 µM (inactive) | > 100 µM (inactive) | > 100 µM (inactive) | > 100 µM (inactive) | > 100 µM (inactive) | > 100 µM (inactive) | > 100 µM (inactive) |  | > 100 µM (inactive)
13 | Cc1ccc(C(=O)NN=C(/N=N/c2cccc(C)c2)c2ccc(N(C)C)cc2)cc1 | > 100 µM (inactive) | > 100 µM (inactive) | > 100 µM (inactive) | > 100 µM (inactive) | > 100 µM (inactive) | > 100 µM (inactive) | > 100 µM (inactive) | 50.9 µM (inactive) | > 100 µM (inactive) |  | > 100 µM (inactive) | > 100 µM (inactive) | > 100 µM (inactive) | > 100 µM (inactive) | > 100 µM (inactive) | > 100 µM (inactive) | 2.82 µM (inactive) | > 100 µM (inactive) |  | > 100 µM (inactive)
14 | COc1ccc(N2C(=O)/C(=C\c3cccc(Oc4ccccc4)c3)SC2c2ccccc2)cc1 (stereo not given) | > 100 µM (inactive) | > 100 µM (inactive) | 66.8 µM (inactive) | 25.4 µM (inactive) | 10.3 µM (inactive) |  | 29.9 µM (inactive) | 29.3 µM (inactive) | 26.7 µM (inactive) | 34.6 µM (inactive) | 41.7 µM (inactive) | 42.5 µM (inactive) | 40.2 µM (inactive) | 60 µM (inactive) | 38.1 µM (inactive) | 24.2 µM (inactive) | 37.5 µM (inactive) | 37.4 µM (inactive) | > 100 µM (inactive) | > 100 µM (inactive)
15 | O=C1C=C(Nc2ccc(S(=O)(=O)Nc3nccs3)cc2)c2ccccc2C1=O | 36.6 µM (inactive) | 26.8 µM (inactive) |  | 34.5 µM (inactive) | 25.8 µM (inactive) | 12.5 µM (inactive) | 18.9 µM (inactive) | 18.8 µM (inactive) | 11.8 µM (inactive) | 21 µM (inactive) | 35.6 µM (inactive) | 27.5 µM (inactive) | 32.9 µM (inactive) | 18 µM (inactive) | 16.5 µM (inactive) | 29.4 µM (inactive) | 69.5 µM (inactive) | 56.9 µM (inactive) | 71 µM (inactive) | 21.9 µM (inactive)
